Test results reported in ChEMBL document CHEMBL4665854, “Backbone Cyclization Turns a Venom Peptide into a Stable and Equipotent Ligand at Both Muscle and Neuronal Nicotinic Receptors” (J Med Chem, 2020).
Active and inactive are the calls of the source. The rule behind the calls is not given here. Positions of bridges follow the written chain, without caps; N, C: chain ends. Residues, ends and D or L forms follow the SMILES beside them.

What was measured:
Danio rerio [1] = assay: Induction of paralysis in adult Zebrafish assessed as induction of rapid flaccid skeletal muscle paralysis dosed via injection measured after 10 mins; assay type: functional, organism-based
[2] = Half life in human serum at 30 uM by LC-MS analysis; assay type: ADME, cell-free
Danio rerio [3] = organism: Danio rerio; assay: Induction of paralysis in Zebrafish assessed as inhibition of larvae movement movement at 100 uM added into the water and measured over 1 hr by larvae movement tracking analysis relative to control; assay type: functional
[4] = target: Neuronal acetylcholine receptor; alpha3/beta2 (Rattus norvegicus, UniProt P04757+P12390); assay: Inhibition of rat alpha3beta2 expressed in Xenopus laevis oocytes assessed as inhibition of acetylcholine-induced channel current response at -70 mV holding potential by two-electrode voltage-clamp assay; assay type: cell-based, Oocyte
[5] = system: Phrenic nerve-diaphragm muscle; assay: Inhibition of muscle contraction in Swiss mouse isolated phrenic nerve hemidiaphragm muscle preparation assessed as reduction of 0.1 Hz stimulation-induced isometric twitch force incubated for 20 to 25 mins; assay type: functional, tissue-based
[6] = system: Phrenic nerve-diaphragm muscle; assay: Reduction in fading of train-of four repetitive stimulation pattern in Swiss mouse isolated phrenic nerve hemidiaphragm muscle preparation at 20 nM; assay type: functional, tissue-based
[7] = target: CHRNA1/CHRNB1/CHRNG/CHRND (Rattus norvegicus, UniProt P18916+P25108+P25109+P25110); assay: Inhibition of rat (alpha1)2betagammadelta expressed in Xenopus laevis oocytes assessed as inhibition of acetylcholine-induced channel current response at -70 mV holding potential by two-electrode voltage-clamp assay; assay type: cell-based, Oocyte
[8] = target: T1, CHRNA1/CHRNB1/CHRNG/CHRND (Rattus norvegicus) (UniProt P25109+P25108+P25110+P18916); assay: Inhibition of rat (alpha1)2betagammadelta expressed in Xenopus laevis oocytes assessed as dissociation rate constant for inhibition of acetylcholine-induced channel current response at -70 mV holding potential by two-electrode voltage-clamp assay; assay type: cell-based; conditions: Oocyte
[9] = target: Nicotinic acetylcholine receptor alpha-1/beta-1/delta/epsilon (Rattus norvegicus, UniProt P09660+P25108+P25109+P25110); assay: Inhibition of rat alpha1beta1epsilondelta expressed in Xenopus laevis oocytes assessed as inhibition of acetylcholine-induced channel current response at -70 mV holding potential by two-electrode voltage-clamp assay relative to control; assay type: cell-based, Oocyte
[10] = target: T1, CHRNA1/CHRNB1/CHRNG/CHRND (Rattus norvegicus); assay: Inhibition of fetal rat (alpha1)2beta1gammadelta expressed in Xenopus laevis oocytes assessed as dissociation rate constant for inhibition of acetylcholine-induced channel current response at 100 nM at -70 mV holding potential by two-electrode voltage-clamp assay; assay type: cell-based; conditions: Oocyte
[11] = target: T2, Neuronal acetylcholine receptor; alpha3/beta2 (Rattus norvegicus) (UniProt P04757+P12390); assay: Inhibition of rat alpha3beta2 expressed in Xenopus laevis oocytes assessed as wash-out time needed for recovery of ACh-induced current responses at -70 mV holding potential by two-electrode voltage-clamp assay; assay type: cell-based; conditions: Oocyte
[12] = system: Phrenic nerve-diaphragm muscle; assay: Inhibition of muscle contraction in Swiss mouse isolated phrenic nerve hemidiaphragm muscle preparation assessed as reduction of 0.1 Hz stimulation-induced isometric twitch force by measuring time required for 40% recovery of nerve-evoked muscle contraction; assay type: functional
[13] = target: Neuronal acetylcholine receptor subunit alpha-7 (Homo sapiens) (UniProt P36544); assay: Inhibition of human alpha7expressed in Xenopus laevis oocytes assessed as acetylcholine-induced channel current response at 10 uM at -70 mV holding potential by two-electrode voltage-clamp assay relative to control; assay type: cell-based; design: scale not given: the % may be the effect or the level left; conditions: Oocyte
[14] = target: Neuronal acetylcholine receptor; alpha4/beta4 (Rattus norvegicus) (UniProt P09483+P12392); assay: Inhibition of rat alpha4beta4 expressed in Xenopus laevis oocytes assessed as acetylcholine-induced channel current response at 10 uM at -70 mV holding potential by two-electrode voltage-clamp assay relative to control; assay type: cell-based; design: scale not given: the % may be the effect or the level left; conditions: Oocyte
[15] = target: Neuronal acetylcholine receptor; alpha9/alpha10 (Homo sapiens) (UniProt Q9UGM1+Q9GZZ6); assay: Inhibition of human alpha9alpha10 expressed in Xenopus laevis oocytes assessed as acetylcholine-induced channel current response at 10 uM at -70 mV holding potential by two-electrode voltage-clamp assay relative to control; assay type: cell-based; design: scale not given: the % may be the effect or the level left; conditions: Oocyte
[16] = target: Nicotinic acetylcholine receptor alpha6/alpha3/beta2/beta3 (Rattus norvegicus, UniProt P04757+P12390+P12391+P43143); assay: Inhibition of rat alpha6alpha3beta2beta3 expressed in Xenopus laevis oocytes assessed as inhibition of acetylcholine-induced channel current response at -70 mV holding potential by two-electrode voltage-clamp assay relative to control; assay type: cell-based, Oocyte
[17] = system: Phrenic nerve-diaphragm muscle; assay: Induction of fading of train-of four repetitive stimulation pattern in Swiss mouse isolated phrenic nerve hemidiaphragm muscle preparation measured at 76% neuromuscular block; assay type: functional, tissue-based
[18] = target: Neuronal acetylcholine receptor; alpha4/beta2 (Rattus norvegicus) (UniProt P09483+P12390); assay: Inhibition of rat alpha4beta2 expressed in Xenopus laevis oocytes assessed as acetylcholine-induced channel current response at 10 uM at -70 mV holding potential by two-electrode voltage-clamp assay relative to control; assay type: cell-based; design: scale not given: the % may be the effect or the level left; conditions: Oocyte
[19] = target: Neuronal acetylcholine receptor; alpha2/beta2 (Rattus norvegicus) (UniProt P12389+P12390); assay: Inhibition of rat alpha2beta2 expressed in Xenopus laevis oocytes assessed as acetylcholine-induced channel current response at 10 uM at -70 mV holding potential by two-electrode voltage-clamp assay relative to control; assay type: cell-based; design: scale not given: the % may be the effect or the level left; conditions: Oocyte
[20] = target: Neuronal acetylcholine receptor; alpha3/beta4 (Rattus norvegicus) (UniProt P04757+P12392); assay: Inhibition of rat alpha3beta4 expressed in Xenopus laevis oocytes assessed as acetylcholine-induced channel current response at 10 uM at -70 mV holding potential by two-electrode voltage-clamp assay relative to control; assay type: cell-based; design: scale not given: the % may be the effect or the level left; conditions: Oocyte
[21] = target: Neuronal acetylcholine receptor; alpha2/beta4 (Rattus norvegicus) (UniProt P12389+P12392); assay: Inhibition of rat alpha2beta4 expressed in Xenopus laevis oocytes assessed as acetylcholine-induced channel current response at 10 uM at -70 mV holding potential by two-electrode voltage-clamp assay relative to control; assay type: cell-based; design: scale not given: the % may be the effect or the level left; conditions: Oocyte
[22] = target: Nicotinic acetylcholine receptor alpha-1/beta-1/delta/epsilon (Homo sapiens) (UniProt P02708+P11230+Q07001+Q04844); assay: Inhibition of adult human (alpha1)2beta1epsilondelta expressed in Xenopus laevis oocytes assessed as dissociation rate constant for inhibition of acetylcholine-induced channel current response at 1 nM at -70 mV holding potential by two-electrode voltage-clamp assay relative to control; assay type: cell-based; conditions: Oocyte
[23] = system: Phrenic nerve-diaphragm muscle; assay: Inhibition of muscle contraction in Swiss mouse isolated phrenic nerve hemidiaphragm muscle preparation assessed as reduction of 0.1 Hz stimulation-induced isometric twitch force by measuring time required to block 50% of nerve-evoked muscle contraction; assay type: functional
[24] = target: T2, Neuronal acetylcholine receptor; alpha3/beta2 (Rattus norvegicus); assay: Competitive inhibition of alpha-conotoxin MII binding to rat alpha3beta2 expressed in Xenopus laevis oocytes at 100 nM; assay type: cell-based; conditions: Oocyte
[25] = system: Phrenic nerve-diaphragm muscle; assay: Inhibition of muscle contraction in Swiss mouse isolated phrenic nerve hemidiaphragm muscle preparation assessed as reduction of peak amplitude of 0.1 Hz stimulation-induced nerve contraction at 16 nM incubated for 30 mins relative to control; assay type: functional; conditions: 0.5 h
[26] = system: Phrenic nerve-diaphragm muscle; assay: Inhibition of muscle contraction in Swiss mouse isolated phrenic nerve hemidiaphragm muscle preparation assessed as reduction of twitch tension-time integrals of 0.1 Hz stimulation-induced nerve contraction at 16 nM incubated for 30 mins followed addition of 10 uM addition of 3,4-DAP for 27 mins by relative to control; assay type: functional, tissue-based; conditions: time 57.0 min
[27] = system: Phrenic nerve-diaphragm muscle; assay: Inhibition of muscle contraction in Swiss mouse isolated phrenic nerve hemidiaphragm muscle preparation assessed as reduction of peak amplitude of 0.1 Hz stimulation-induced nerve contraction at 16 nM incubated for 30 mins followed addition of 10 uM addition of 3,4-DAP for 27 mins by relative to control; assay type: functional, tissue-based; conditions: time 57.0 min
[28] = Mus musculus, Swiss, Phrenic nerve-diaphragm muscle

Sequence of CHRNA1/CHRNB1/CHRNG/CHRND (P25109 whole entry): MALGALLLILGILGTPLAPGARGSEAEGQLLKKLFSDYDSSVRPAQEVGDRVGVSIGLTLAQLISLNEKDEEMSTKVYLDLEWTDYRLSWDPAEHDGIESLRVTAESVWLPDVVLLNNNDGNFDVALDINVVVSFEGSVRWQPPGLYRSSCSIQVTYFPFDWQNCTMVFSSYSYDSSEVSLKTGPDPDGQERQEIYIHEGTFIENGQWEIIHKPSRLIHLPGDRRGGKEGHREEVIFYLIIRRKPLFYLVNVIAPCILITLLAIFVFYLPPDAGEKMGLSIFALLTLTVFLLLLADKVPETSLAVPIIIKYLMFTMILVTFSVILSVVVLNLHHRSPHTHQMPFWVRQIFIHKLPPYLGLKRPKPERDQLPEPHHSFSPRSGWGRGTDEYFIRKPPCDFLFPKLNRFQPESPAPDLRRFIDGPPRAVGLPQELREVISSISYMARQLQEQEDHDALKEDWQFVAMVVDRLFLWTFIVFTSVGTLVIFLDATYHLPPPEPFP
Sequence of CHRNA1/CHRNB1/CHRNG/CHRND (P25108 whole entry): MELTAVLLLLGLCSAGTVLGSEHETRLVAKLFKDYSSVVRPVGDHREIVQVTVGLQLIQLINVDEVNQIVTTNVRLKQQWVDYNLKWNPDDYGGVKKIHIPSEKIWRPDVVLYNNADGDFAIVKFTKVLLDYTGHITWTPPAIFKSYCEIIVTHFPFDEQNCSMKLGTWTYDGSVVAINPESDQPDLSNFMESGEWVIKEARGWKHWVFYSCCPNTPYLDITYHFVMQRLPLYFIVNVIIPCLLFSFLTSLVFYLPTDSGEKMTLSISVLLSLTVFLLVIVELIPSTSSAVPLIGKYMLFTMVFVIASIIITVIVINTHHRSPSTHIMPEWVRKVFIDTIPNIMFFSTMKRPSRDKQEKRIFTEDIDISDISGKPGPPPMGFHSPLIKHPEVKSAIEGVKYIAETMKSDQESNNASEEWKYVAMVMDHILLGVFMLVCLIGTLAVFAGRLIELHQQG
Sequence of CHRNA1/CHRNB1/CHRNG/CHRND (P25110 whole entry): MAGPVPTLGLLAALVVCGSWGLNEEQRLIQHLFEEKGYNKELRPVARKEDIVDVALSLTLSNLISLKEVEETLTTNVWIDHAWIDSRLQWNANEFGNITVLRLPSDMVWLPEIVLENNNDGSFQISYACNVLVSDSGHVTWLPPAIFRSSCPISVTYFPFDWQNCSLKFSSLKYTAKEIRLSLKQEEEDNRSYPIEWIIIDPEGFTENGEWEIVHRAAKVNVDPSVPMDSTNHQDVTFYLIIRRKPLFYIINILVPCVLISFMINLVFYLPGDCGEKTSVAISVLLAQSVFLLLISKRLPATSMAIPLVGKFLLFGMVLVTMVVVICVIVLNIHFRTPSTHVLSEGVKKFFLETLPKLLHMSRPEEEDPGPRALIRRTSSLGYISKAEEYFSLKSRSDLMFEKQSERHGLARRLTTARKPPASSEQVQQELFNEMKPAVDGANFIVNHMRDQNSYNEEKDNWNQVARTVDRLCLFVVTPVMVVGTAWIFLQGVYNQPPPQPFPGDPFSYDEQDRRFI
Sequence of CHRNA1/CHRNB1/CHRNG/CHRND (P18916 whole entry): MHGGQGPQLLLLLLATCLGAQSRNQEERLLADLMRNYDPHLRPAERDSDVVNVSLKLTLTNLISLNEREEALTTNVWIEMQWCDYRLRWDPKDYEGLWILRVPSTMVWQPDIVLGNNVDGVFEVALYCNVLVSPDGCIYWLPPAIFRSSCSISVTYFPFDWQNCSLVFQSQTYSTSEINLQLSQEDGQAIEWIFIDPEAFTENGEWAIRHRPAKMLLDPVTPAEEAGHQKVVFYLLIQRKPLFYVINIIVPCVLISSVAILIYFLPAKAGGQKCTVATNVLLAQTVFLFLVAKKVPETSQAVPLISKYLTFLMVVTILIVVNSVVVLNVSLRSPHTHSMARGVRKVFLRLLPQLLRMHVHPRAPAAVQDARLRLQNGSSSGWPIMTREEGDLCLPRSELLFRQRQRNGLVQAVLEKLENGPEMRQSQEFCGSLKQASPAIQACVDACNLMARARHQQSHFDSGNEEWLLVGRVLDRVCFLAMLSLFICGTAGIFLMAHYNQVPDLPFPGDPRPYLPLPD
Sequence of Neuronal acetylcholine receptor; alpha3/beta2 (P04757 whole entry): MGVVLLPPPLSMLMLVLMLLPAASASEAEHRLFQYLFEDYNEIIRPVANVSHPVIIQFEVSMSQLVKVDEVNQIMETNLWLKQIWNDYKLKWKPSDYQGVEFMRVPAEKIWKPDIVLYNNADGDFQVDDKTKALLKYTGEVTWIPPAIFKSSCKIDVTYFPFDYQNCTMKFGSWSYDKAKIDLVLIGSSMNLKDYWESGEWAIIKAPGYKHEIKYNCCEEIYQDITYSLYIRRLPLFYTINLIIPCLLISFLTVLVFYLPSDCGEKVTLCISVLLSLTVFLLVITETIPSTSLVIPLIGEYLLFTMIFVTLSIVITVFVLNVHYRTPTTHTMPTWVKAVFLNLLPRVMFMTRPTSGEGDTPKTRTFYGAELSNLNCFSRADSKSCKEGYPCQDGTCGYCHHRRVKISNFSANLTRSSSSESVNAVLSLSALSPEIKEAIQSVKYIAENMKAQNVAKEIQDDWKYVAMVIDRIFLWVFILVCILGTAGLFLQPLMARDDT
Sequence of Neuronal acetylcholine receptor; alpha3/beta2 (P12390 whole entry): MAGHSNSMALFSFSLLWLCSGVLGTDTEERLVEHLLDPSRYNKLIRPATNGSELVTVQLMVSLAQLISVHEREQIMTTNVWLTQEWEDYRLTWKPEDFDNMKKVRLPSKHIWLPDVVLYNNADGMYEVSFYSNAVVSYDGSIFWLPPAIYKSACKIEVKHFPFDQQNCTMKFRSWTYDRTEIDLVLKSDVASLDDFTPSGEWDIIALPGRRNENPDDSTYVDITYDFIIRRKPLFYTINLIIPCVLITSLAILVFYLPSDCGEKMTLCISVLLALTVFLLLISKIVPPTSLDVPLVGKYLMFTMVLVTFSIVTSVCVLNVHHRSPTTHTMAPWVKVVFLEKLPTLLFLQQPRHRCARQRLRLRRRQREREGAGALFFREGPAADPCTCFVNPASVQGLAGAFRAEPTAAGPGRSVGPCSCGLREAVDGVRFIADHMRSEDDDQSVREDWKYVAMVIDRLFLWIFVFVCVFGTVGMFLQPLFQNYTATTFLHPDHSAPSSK
Sequence of Nicotinic acetylcholine receptor alpha-1/beta-1/delta/epsilon (P25109 whole entry): as the sequence (P25109 whole entry) above
Sequence of Nicotinic acetylcholine receptor alpha-1/beta-1/delta/epsilon (P25108 whole entry): as the sequence (P25108 whole entry) above
Sequence of Nicotinic acetylcholine receptor alpha-1/beta-1/delta/epsilon (P25110 whole entry): as the sequence (P25110 whole entry) above
Sequence of Nicotinic acetylcholine receptor alpha-1/beta-1/delta/epsilon (P09660 whole entry): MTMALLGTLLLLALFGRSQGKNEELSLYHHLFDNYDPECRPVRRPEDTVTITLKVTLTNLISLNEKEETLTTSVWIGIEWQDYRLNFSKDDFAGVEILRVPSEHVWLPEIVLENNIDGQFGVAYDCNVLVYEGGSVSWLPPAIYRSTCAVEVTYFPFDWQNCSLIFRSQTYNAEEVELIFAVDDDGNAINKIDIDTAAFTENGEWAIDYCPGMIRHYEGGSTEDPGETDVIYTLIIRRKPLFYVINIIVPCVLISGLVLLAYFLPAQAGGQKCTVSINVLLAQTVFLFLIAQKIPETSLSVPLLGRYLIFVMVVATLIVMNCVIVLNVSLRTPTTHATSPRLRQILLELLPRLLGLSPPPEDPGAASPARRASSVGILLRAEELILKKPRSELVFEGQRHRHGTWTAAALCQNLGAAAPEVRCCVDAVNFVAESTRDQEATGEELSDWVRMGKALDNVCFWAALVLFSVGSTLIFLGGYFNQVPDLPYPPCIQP
Sequence of Neuronal acetylcholine receptor subunit alpha-7 (Homo sapiens) (P36544 whole entry): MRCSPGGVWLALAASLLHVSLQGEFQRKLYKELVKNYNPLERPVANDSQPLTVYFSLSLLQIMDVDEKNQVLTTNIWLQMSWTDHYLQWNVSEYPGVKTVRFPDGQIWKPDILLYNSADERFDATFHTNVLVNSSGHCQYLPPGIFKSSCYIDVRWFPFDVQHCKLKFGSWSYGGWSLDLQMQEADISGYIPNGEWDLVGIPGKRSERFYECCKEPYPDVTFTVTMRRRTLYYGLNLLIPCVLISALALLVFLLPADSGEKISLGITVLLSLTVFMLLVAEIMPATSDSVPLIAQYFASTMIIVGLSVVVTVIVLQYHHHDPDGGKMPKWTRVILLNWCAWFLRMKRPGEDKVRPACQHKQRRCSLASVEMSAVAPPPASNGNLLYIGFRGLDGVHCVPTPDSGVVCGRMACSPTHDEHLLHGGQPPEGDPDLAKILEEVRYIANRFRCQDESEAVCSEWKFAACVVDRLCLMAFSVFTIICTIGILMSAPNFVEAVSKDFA

Row | SMILES | Activity (Danio rerio [1]) | IC50 (Danio rerio [1]; Danio rerio, 10 min) [nM] | half-life at 30 µM [2] [h] | inhibition in vivo at 100 µM (Danio rerio [3]) [%] | IC50 [4] [nM] | IC50 [5, 28] [nM] | Activity [6] | IC50 [7] [nM] | K [8] [min⁻¹] | other results
1 | C[C@@H]1NC(=O)[C@@H]2CSSC[C@@H]3NC(=O)[C@H](CSSC[C@H](NC(=O)[C@H](C)NC(=O)[C@@H]4CCCN4C(=O)[C@H](Cc4c[nH]cn4)NC3=O)C(=O)NCC(=O)N[C@@H](CCCCN)C(=O)N[C@@H](Cc3c[nH]cn3)C(=O)N[C@@H](Cc3ccccc3)C(=O)N[C@@H](CO)C(=O)N2)NC(=O)[C@H](CCCNC(=N)N)NC(=O)CNC(=O)[C@H](CC(N)=O)NC(=O)CNC1=O (cyclo(ACGKHFSCAGNGRCCHP); disulfide 2-14, 8-15) | Dose-dependent effect | 12100 | 7.33 | 99.8 | 10.3 | 13.5 | inactive | 7.54 | 0.126 | 
2 | C[C@@H]1NC(=O)[C@H](C)NC(=O)[C@@H]2CSSC[C@@H]3NC(=O)[C@H](CSSC[C@H](NC(=O)[C@H](C)NC(=O)[C@@H]4CCCN4C(=O)[C@H](Cc4c[nH]cn4)NC3=O)C(=O)NCC(=O)N[C@@H](CCCCN)C(=O)N[C@@H](Cc3c[nH]cn3)C(=O)N[C@@H](Cc3ccccc3)C(=O)N[C@@H](CO)C(=O)N2)NC(=O)[C@H](CCCNC(=N)N)NC(=O)CNC(=O)[C@H](CC(N)=O)NC(=O)CNC1=O (cyclo(AAGNGRCCHPACGKHFSC); disulfide 7-12, 8-18) | Dose-dependent effect | 57900 | 5.33 | 20.5 | 1.3 | 8.7 | inactive | 3.57 | 0.03 | IC50 [9]: 0.184 nM; K [10]: 0.03 min⁻¹; TIME [11]: 0.5 h; Time [12]: 32.6 min; Activity [13]: 65%; Activity [14]: > 80%; Activity [15]: > 80%; IC50 [16]: 8.64 nM; Activity [17]: inactive; Activity [18]: > 80%; Activity [19]: > 80%; Activity [20]: > 80%; Activity [21]: > 80%; K [22]: 0.013 min⁻¹; Time [23]: 19 min; inhibition [24]: Active; inhibition at 0.016 µM [25]: 85%; inhibition [26]: inactive; inhibition [27]: inactive
3 | C[C@@H]1NC(=O)CNC(=O)[C@@H]2CSSC[C@@H]3NC(=O)[C@H](CSSC[C@H](NC(=O)[C@H](C)NC(=O)[C@@H]4CCCN4C(=O)[C@H](Cc4c[nH]cn4)NC3=O)C(=O)NCC(=O)N[C@@H](CCCCN)C(=O)N[C@@H](Cc3c[nH]cn3)C(=O)N[C@@H](Cc3ccccc3)C(=O)N[C@@H](CO)C(=O)N2)NC(=O)[C@H](CCCNC(=N)N)NC(=O)CNC(=O)[C@H](CC(N)=O)NC(=O)CNC(=O)[C@H](C)NC1=O (cyclo(AAGNGRCCHPACGKHFSCG); disulfide 7-12, 8-18) | Dose-dependent effect | 76200 | > 8 | 25.2 | 21.3 | 16.5 | inactive | 8.64 | 0.066 | 
4 | C[C@@H]1NC(=O)[C@@H]2CCCN2C(=O)[C@H](Cc2c[nH]cn2)NC(=O)[C@@H]2CSSC[C@@H](C(N)=O)NC(=O)[C@H](CO)NC(=O)[C@H](Cc3ccccc3)NC(=O)[C@H](Cc3c[nH]cn3)NC(=O)[C@H](CCCCN)NC(=O)CNC(=O)[C@H](CSSC[C@H](NC(=O)[C@H](CCCNC(=N)N)NC(=O)CNC(=O)[C@@H](N)CC(N)=O)C(=O)N2)NC1=O (H-NGRCCHPACGKHFSC-NH2; disulfide 4-9, 5-15) | Dose-dependent effect |  | 1.33 |  |  |  | inactive |  |  | IC50 (Danio rerio [1]): 6900 nM; IC50 [5]: 8.98 nM
